{
  "source": "patent US6914045B2",
  "about": "“Glycopeptide antibiotics” (Wyeth Holdings Corporation, priority 2001, dated 2005)",
  "assay_in_all_cases": "in vitro antibacterial evaluation, MIC by broth dilution",
  "type_in_all_cases": "cell-based",
  "key": {"Streptococcus sp.": {"system": "Streptococcus sp.", "details": "broth dilution, 18 hours at 35° C.", "in_short": "(§1)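 Following National Committee for Clinical Laboratory Standards recommendations (M7-A2), susceptibility was measured by dilution in Muller-Hinton II […]. Bacteria were seeded at 5×10^5 CFU/mL against compound concentrations from 64 down to 0.06 μg/mL.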"}, "Enterococcus sp.": {"system": "Enterococcus sp.", "details": "broth dilution, 18 hours at 35° C.", "in_short": "as §1"}, "Staphylococcus sp.": {"system": "Staphylococcus sp.", "details": "broth dilution, 18 hours at 35° C.", "in_short": "as §1"}, "Escherichia coli": {"system": "Escherichia coli", "details": "18 hours at 35° C."}},
  "data": [
    {"compound": "COc1ccc(COCC2OC(OC3C(CO)OC(Oc4ccc(CC5NC(=O)C(C(C)c6ccccc6)NC(=O)CNC(=O)C(CO)NC(=O)C(C(O)C6CNC(=N)N6C6OC(CO)C(O)C(O)C6O)NC(=O)C(C(O)C6CNC(=N)N6)NC5=O)cc4)C(O)C3O)C(O)C(O)C2O)cc1F", "note": "(stereo not shown) [Example 237]", "values": [
      {"measurement": "MIC Streptococcus agalactiae (GC 4564)", "setting": "Streptococcus sp.", "result": 2, "unit": "µg/mL"},
      {"measurement": "MIC Streptococcus pneumoniae (ATCC 6301)", "setting": "Streptococcus sp.", "result": 0.5, "unit": "µg/mL"},
      {"measurement": "MIC Streptococcus pneumoniae (GC 1894)", "setting": "Streptococcus sp.", "result": 0.25, "unit": "µg/mL"},
      {"measurement": "MIC Streptococcus pneumoniae (GC 4565)", "setting": "Streptococcus sp.", "result": 0.5, "unit": "µg/mL"},
      {"measurement": "MIC Streptococcus pyogenes (GC 4563)", "setting": "Streptococcus sp.", "result": 1, "unit": "µg/mL"},
      {"measurement": "MIC Streptococcus pneumoniae (ATCC 6301)", "setting": "Streptococcus sp.; inoculum 5×10^5 CFU/mL, strain ATCC 6301", "result": 0.5, "unit": "µg/mL"},
      {"measurement": "MIC Streptococcus pneumoniae (GC 1894)", "setting": "Streptococcus sp.; inoculum 5×10^5 CFU/mL, strain GC 1894", "result": 0.25, "unit": "µg/mL"},
      {"measurement": "MIC Streptococcus pyogenes (GC 4563)", "setting": "Streptococcus sp.; inoculum 5×10^5 CFU/mL, strain GC 4563", "result": 1, "unit": "µg/mL"},
      {"measurement": "MIC Streptococcus agalactiae (GC 4564)", "setting": "Streptococcus sp.; inoculum 5×10^5 CFU/mL, strain GC 4564", "result": 2, "unit": "µg/mL"},
      {"measurement": "MIC Streptococcus pneumoniae (GC 4565)", "setting": "Streptococcus sp.; inoculum 5×10^5 CFU/mL, strain GC 4565", "result": 0.5, "unit": "µg/mL"},
      {"measurement": "MIC Enterococcus avium (GC 4558)", "setting": "Enterococcus sp.", "result": 16, "unit": "µg/mL"},
      {"measurement": "MIC Enterococcus faecalis (ATCC 29212)", "setting": "Enterococcus sp.", "result": 16, "unit": "µg/mL"},
      {"measurement": "MIC Enterococcus faecalis (GC 2242)", "setting": "Enterococcus sp.", "result": 16, "unit": "µg/mL"},
      {"measurement": "MIC Enterococcus faecalis (GC 2691)", "setting": "Enterococcus sp.", "result": 16, "unit": "µg/mL"},
      {"measurement": "MIC Enterococcus faecalis (GC 3059)", "setting": "Enterococcus sp.", "result": 32, "unit": "µg/mL"},
      {"measurement": "MIC Enterococcus faecalis (GC 4552)", "setting": "Enterococcus sp.", "result": 16, "unit": "µg/mL"},
      {"measurement": "MIC Enterococcus faecalis (GC 4553)", "setting": "Enterococcus sp.", "result": 16, "unit": "µg/mL"},
      {"measurement": "MIC Enterococcus faecalis (GC 4554)", "setting": "Enterococcus sp.", "result": 32, "unit": "µg/mL"},
      {"measurement": "MIC Enterococcus faecalis (GC 6189)", "setting": "Enterococcus sp.", "result": 16, "unit": "µg/mL"},
      {"measurement": "MIC Enterococcus faecium (GC 2243)", "setting": "Enterococcus sp.", "result": 16, "unit": "µg/mL"},
      {"measurement": "MIC Enterococcus faecium (GC 4556)", "setting": "Enterococcus sp.", "result": 16, "unit": "µg/mL"},
      {"measurement": "MIC Enterococcus faecium (GC 4557)", "setting": "Enterococcus sp.", "result": 4, "unit": "µg/mL"},
      {"measurement": "MIC Enterococcus faecalis (ATCC 29212)", "setting": "Enterococcus sp.; strain ATCC 29212", "result": 16, "unit": "µg/mL"},
      {"measurement": "MIC Enterococcus faecium (GC 2243)", "setting": "Enterococcus sp.; strain GC 2243", "result": 16, "unit": "µg/mL"},
      {"measurement": "MIC Enterococcus faecalis (GC 4552)", "setting": "Enterococcus sp.; strain GC 4552", "result": 16, "unit": "µg/mL"},
      {"measurement": "MIC Enterococcus faecalis (GC 4553)", "setting": "Enterococcus sp.; strain GC 4553", "result": 16, "unit": "µg/mL"},
      {"measurement": "MIC Enterococcus faecalis (GC 4554)", "setting": "Enterococcus sp.; strain GC 4554", "result": 32, "unit": "µg/mL"},
      {"measurement": "MIC Enterococcus faecium (GC 4556)", "setting": "Enterococcus sp.; strain GC 4556", "result": 16, "unit": "µg/mL"},
      {"measurement": "MIC Enterococcus faecium (GC 4557)", "setting": "Enterococcus sp.; strain GC 4557", "result": 4, "unit": "µg/mL"},
      {"measurement": "MIC Enterococcus avium (GC 4558)", "setting": "Enterococcus sp.; strain GC 4558", "result": 16, "unit": "µg/mL"},
      {"measurement": "MIC Enterococcus faecalis (GC 6189)", "setting": "Enterococcus sp.; strain GC 6189", "result": 16, "unit": "µg/mL"},
      {"measurement": "MIC Enterococcus faecalis (GC 2242)", "setting": "Enterococcus sp.; inoculum 5×10^5 CFU/mL, strain GC 2242", "result": 16, "unit": "µg/mL"},
      {"measurement": "MIC Enterococcus faecalis (GC 2691)", "setting": "Enterococcus sp.; inoculum 5×10^5 CFU/mL, strain GC 2691", "result": 16, "unit": "µg/mL"},
      {"measurement": "MIC Enterococcus faecalis (GC 3059)", "setting": "Enterococcus sp.; inoculum 5×10^5 CFU/mL, strain GC 3059", "result": 32, "unit": "µg/mL"},
      {"measurement": "MIC Coagulase Negative Staphylococcus (GC 4547)", "setting": "Staphylococcus sp.", "result": 2, "unit": "µg/mL"},
      {"measurement": "MIC Coagulase Negative Staphylococcus (GC 4548)", "setting": "Staphylococcus sp.", "result": 1, "unit": "µg/mL"},
      {"measurement": "MIC Coagulase Negative Staphylococcus (GC 4549)", "setting": "Staphylococcus sp.", "result": 1, "unit": "µg/mL"},
      {"measurement": "MIC Coagulase Negative Staphylococcus (GC 4551)", "setting": "Staphylococcus sp.", "result": 4, "unit": "µg/mL"},
      {"measurement": "MIC Coagulase Negative Staphylococcus (GC 6257)", "setting": "Staphylococcus sp.", "result": 1, "unit": "µg/mL"},
      {"measurement": "MIC Staphylococcus aureus (ATCC 29213)", "setting": "Staphylococcus sp.", "result": 4, "unit": "µg/mL"},
      {"measurement": "MIC Staphylococcus aureus (GC 1131)", "setting": "Staphylococcus sp.", "result": 4, "unit": "µg/mL"},
      {"measurement": "MIC Staphylococcus aureus (GC 3051)", "setting": "Staphylococcus sp.", "result": 2, "unit": "µg/mL"},
      {"measurement": "MIC Staphylococcus aureus (GC 3053)", "setting": "Staphylococcus sp.", "result": 4, "unit": "µg/mL"},
      {"measurement": "MIC Staphylococcus aureus (GC 4541)", "setting": "Staphylococcus sp.", "result": 2, "unit": "µg/mL"},
      {"measurement": "MIC Staphylococcus aureus (GC 4542)", "setting": "Staphylococcus sp.", "result": 8, "unit": "µg/mL"},
      {"measurement": "MIC Staphylococcus aureus (GC 4544)", "setting": "Staphylococcus sp.", "result": 4, "unit": "µg/mL"},
      {"measurement": "MIC Staphylococcus aureus (GC 4545)", "setting": "Staphylococcus sp.", "result": 2, "unit": "µg/mL"},
      {"measurement": "MIC Staphylococcus aureus-SMITH (GC 4543)", "setting": "Staphylococcus sp.", "result": 2, "unit": "µg/mL"},
      {"measurement": "MIC Staphylococcus haemolyticus (GC 4546)", "setting": "Staphylococcus sp.", "result": 1, "unit": "µg/mL"},
      {"measurement": "MIC Staphylococcus aureus (ATCC 29213)", "setting": "Staphylococcus sp.; strain ATCC 29213", "result": 4, "unit": "µg/mL"},
      {"measurement": "MIC Staphylococcus aureus (GC 1131)", "setting": "Staphylococcus sp.; strain GC 1131", "result": 4, "unit": "µg/mL"},
      {"measurement": "MIC Staphylococcus aureus (GC 3051)", "setting": "Staphylococcus sp.; strain GC 3051", "result": 2, "unit": "µg/mL"},
      {"measurement": "MIC Staphylococcus aureus (GC 3053)", "setting": "Staphylococcus sp.; strain GC 3053", "result": 4, "unit": "µg/mL"},
      {"measurement": "MIC Staphylococcus aureus (GC 4541)", "setting": "Staphylococcus sp.; strain GC 4541", "result": 2, "unit": "µg/mL"},
      {"measurement": "MIC Staphylococcus aureus (GC 4542)", "setting": "Staphylococcus sp.; strain GC 4542", "result": 8, "unit": "µg/mL"},
      {"measurement": "MIC Staphylococcus aureus-SMITH (GC 4543)", "setting": "Staphylococcus sp.; strain GC 4543", "result": 2, "unit": "µg/mL"},
      {"measurement": "MIC Staphylococcus aureus (GC 4544)", "setting": "Staphylococcus sp.; strain GC 4544", "result": 4, "unit": "µg/mL"},
      {"measurement": "MIC Staphylococcus aureus (GC 4545)", "setting": "Staphylococcus sp.; strain GC 4545", "result": 2, "unit": "µg/mL"},
      {"measurement": "MIC Staphylococcus haemolyticus (GC 4546)", "setting": "Staphylococcus sp.; strain GC 4546", "result": 1, "unit": "µg/mL"},
      {"measurement": "MIC Coagulase Negative Staphylococcus (GC 4547)", "setting": "Staphylococcus sp.; strain GC 4547", "result": 2, "unit": "µg/mL"},
      {"measurement": "MIC Coagulase Negative Staphylococcus (GC 4548)", "setting": "Staphylococcus sp.; strain GC 4548", "result": 1, "unit": "µg/mL"},
      {"measurement": "MIC Coagulase Negative Staphylococcus (GC 4549)", "setting": "Staphylococcus sp.; strain GC 4549", "result": 1, "unit": "µg/mL"},
      {"measurement": "MIC Coagulase Negative Staphylococcus (GC 4551)", "setting": "Staphylococcus sp.; strain GC 4551", "result": 4, "unit": "µg/mL"},
      {"measurement": "MIC Coagulase Negative Staphylococcus (GC 6257)", "setting": "Staphylococcus sp.; strain GC 6257", "result": 1, "unit": "µg/mL"},
      {"measurement": "MIC Escherichia coli (ATCC 25922)", "setting": "Escherichia coli", "result": 64, "unit": "µg/mL"},
      {"measurement": "MIC Escherichia coli (GC 4559)", "setting": "Escherichia coli", "result": 64, "unit": "µg/mL"},
      {"measurement": "MIC Escherichia coli (GC 4560)", "setting": "Escherichia coli", "result": 1, "unit": "µg/mL"}
    ]}
  ]
}
